From patent publication EP3906926A1, “PROLINE HYDROXYLASE INHIBITORS FOR USE IN THE SKELETAL MUSCLE REGENERATION” (Policlinico San Donato S.p.A.- Istituto di Ricovero e Cura …, priority 2020, dated 2021)

What was measured:
WNT7a promoter = assay: Nano-Glo luciferase reporter assay of pNL1.1-WNT7a promoter activity; assay type: cell-based, murine; conditions: 24 hours at IC50 working concentrations
Method: Genomic DNA was extracted from C2C12 murine myoblast and used as the template for WNT7a promoter amplification. The PCR reaction was prepared using a Phusion High-Fidelity kit (New England Biolabs) and employing the following primers: forward 5'-[…]-3' (SEQ ID NO:1), containing KpnI enzymatic site, and reverse 5'-[…]-3' (SEQ ID NO:2) containing the HindIII enzymatic site. The PCR fragment and the vector pNL1.1(Nluc) (Promega) were digested with KnpI and HindIII (Promega) restriction enzymes for 2 hours at 37°C and, then, they were purified from agarose gel using Wizard® SV Gel and PCR Clean-Up System (Promega). The fragment was inserted into the multiple cloning site of pNL1.1 vector using T4 Ligase Fast (Promega) and the reaction was incubated for 1 hour at room temperature. The presence of the insert in the plasmid was finally verified by DNA sequencing.
Briefly, cells were seeded in a 96-well plate at a concentration of 5 x 10^3 cells per well, transfected with the pNL1.1 or pNL1.1WNT7a_promoter (90 ng) plasmids and pGL4.54(luc2/TK) (10 ng) plasmid as internal control, according to ViaFect Transfection Reagent® protocol (Promega), and then incubated for 24 hours. […] To turn off the luminescence of the Firefly luciferase and provide the substrate for the Nanoluc, an equal volume of NanoDLR™ Stop&Glo® Reagent was added to the mixture and incubated for 30 minutes before analysis.

WNT7a = assay: qPCR of WNT7a gene expression; assay type: cell-based, murine; conditions: IOX2 or FG-4592 treatment
Method: (§1) Total RNA was isolated using ReliaPrep™ RNA Miniprep Systems (Promega), and reverse transcribed to cDNA using the iScript cDNA synthesis kit (BioRad), according to the Manufacturer's instructions. Real-Time Quantitative PCR was performed on 10 ng of cDNA template, 0.2 µM primers, and GoTaq® qPCR Master Mix (Promega) in 20 µl final volume using a StepOnePlus® Real-Time PCR System (Applied Biosystem). […] RPL13 was used as the housekeeping gene. The amplification program consisted in an initial denaturation at 95°C for 3 minutes, followed by 40 cycles of 5 seconds each at 95°C and 30 seconds at 57°C; WNT7a was amplified at 53°C. Relative quantification of target genes was performed in triplicate and calculated by the equation 2^-ΔΔCt.

MYOR = assay: qPCR of MYOR; assay type: cell-based, murine; conditions: IOX2 or FG-4592 treatment, vs controls
Method: as §1

[1] = system: WNT7a silenced murine myoblasts (WNT7a-KO); assay: Differentiation of WNT7a-KO versus wild type myoblasts after chemical hypoxia (fusion and differentiation indexes); assay type: cell-based; conditions: WNT7a-KO vs wild type cells, 24 hours inhibitor pre-treatment then 7 days differentiation
Method: After differentiation for 7 days in DM, cells were washed with phosphate saline buffer (PBS) and fixed for 15 minutes in 4% (w/v) paraformaldehyde at room temperature. For permeabilization and blocking, cells were incubated for 1 hour in the presence of PBS 0.1% (v/v) Triton X-100 (TX-100, Merck) and 5% (w/v) FBS (Merck) at room temperature. […] After incubation, cells were washed three times in PBS and incubated for 1 hour at room temperature with an anti-mouse FITC-conjugated secondary antibody (Jackson ImmunoResearch), diluted 1:200. […] Myogenesis was assessed by measuring the myotube area and the number of myonuclei per myotube using a fluorescent microscope (Olympus TH4-200) equipped with an acquisition camera. To quantify both differentiation and fusion indexes, ten fields were chosen randomly and, for each field, a minimum of one hundred myosin-positive myotubes with more than two myonuclei were measured using the ImageJ v1.49o software. The area and the number of nuclei per myotube was the mean of ten measurements averaged from three different experiments.
Therefore, WNT7a silencing was conducted by Crispr/Cas9 genome editing in C2C12 murine myoblasts and the effects on myogenesis were evaluated.
The knockout of WNT7a gene was obtained performing CRISPR/Cas9 genome editing. In particular, crRNAs and tracrRNA were obtained from TrueGuide™ Synthetic gRNA kit (ThermoFisher Scientific) and they were reconstituted and annealed following the manufacturer's instructions. […] Briefly, they were re-suspended using 1X Tris-EDTA buffer pH 8.0 to prepare a 100 µM stock solution. Then, gRNAs were generated preparing a mix composed of 10 µL crRNA, 10 µL tracrRNA, 10 µL annealing buffer, and 20 µL nuclease-free water. The mixture was incubated at 95 °C for 5 minutes followed by 10 mins on 78 °C, and then 25 °C for 5 minutes.
The transfection was performed seeding 5 x 10^5 murine myoblasts C2C12 in a 24-well plate.
The diluted Lipofectamine ™ CRISPRMAX ™ reagent in Opti-MEM I Medium was incubated 1 minute at room temperature and, then, it was added to gRNA/Opti-MEM I solution for 15 minutes. Then, the mixture was added to murine myoblasts and it was incubated at 37°C for 2 days. After the incubation, single-cell clones were isolated using a limiting dilution cloning in 96-well plates. The efficiency of WNT7a knockout (WNT7a-KO) was verified by sequencing.

Row | SMILES | WNT7a promoter activation, luminescence increase (WNT7a promoter) | increase in WNT7a gene expression (WNT7a) | MYOR mRNA level down-regulated (MYOR) | decrease in fusion index [1] | reduction in differentiation index [1]
1 | Cc1nc(C(=O)NCC(=O)O)c(O)c2ccc(Oc3ccccc3)cc12 [FG-4592, Roxadustat] | 1.3 fold | 2.3 fold | 2.6 fold | 63% | 15%
2 | O=C(O)CNC(=O)c1c(O)c2ccccc2n(Cc2ccccc2)c1=O [IOX2] | 1.4 fold | 1.4 fold | 2.2 fold | 67% | no significant changes
